Format in all cases: functional, cell-based
Experiment [1] has as its target T1, P2Y purinoceptor 2 (Homo sapiens, UniProt P41231). Description: Agonist activity at human P2Y2 receptor expressed in human 1321N1 cells assessed as calcium elevation by fura2/AM assay.
Experiment [2] addresses T2, P2Y purinoceptor 4 (Homo sapiens, UniProt P51582). Description: Agonist activity at human P2Y4 receptor expressed in human 1321N1 cells assessed as concentration required to 50% maximal response of compound 3 at 10 uM by fura2/AM assay.
Experiment [3] deals with T3, P2Y purinoceptor 6 (Homo sapiens, UniProt Q15077). Put plainly: Agonist activity at human P2Y6 receptor expressed in human 1321N1 cells assessed as calcium elevation at 10 uM by fura2/AM assay.
T3 sequence (Q15077 whole entry): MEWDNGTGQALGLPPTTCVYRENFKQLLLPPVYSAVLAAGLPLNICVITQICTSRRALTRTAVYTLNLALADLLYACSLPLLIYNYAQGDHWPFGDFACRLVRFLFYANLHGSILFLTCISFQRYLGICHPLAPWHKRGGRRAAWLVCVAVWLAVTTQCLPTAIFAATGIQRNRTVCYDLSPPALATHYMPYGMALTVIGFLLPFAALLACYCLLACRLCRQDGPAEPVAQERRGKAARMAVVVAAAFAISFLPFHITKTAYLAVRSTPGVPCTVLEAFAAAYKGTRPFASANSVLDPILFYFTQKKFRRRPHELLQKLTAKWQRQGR
In experiment [4] the target is T3, P2Y purinoceptor 6. Description: Agonist activity at human P2Y6 receptor expressed in human 1321N1 cells assessed as calcium elevation by fura2/AM assay.
In experiment [5] the target is T2, P2Y purinoceptor 4. Put plainly: Agonist activity at human P2Y4 receptor expressed in human 1321N1 cells assessed as calcium elevation by fura2/AM assay.
The target in experiment [6] is T1, P2Y purinoceptor 2. Put plainly: Agonist activity at human P2Y2 receptor expressed in human 1321N1 cells assessed as concentration required to 50% maximal response of compound 3 at 10 uM by fura2/AM assay.
Experiment [7] concerns the target T3, P2Y purinoceptor 6. Description: Agonist activity at human P2Y6 receptor expressed in human 1321N1 cells assessed as concentration required to 50% maximal response of compound 3 at 10 uM by fura2/AM assay.
Experiment [8] has as its target T2, P2Y purinoceptor 4. Put plainly: Agonist activity at human P2Y4 receptor expressed in human 1321N1 cells assessed as calcium elevation at 10 uM by fura2/AM assay.
In experiment [9] the target is T1, P2Y purinoceptor 2. Description: Agonist activity at human P2Y2 receptor expressed in human 1321N1 cells assessed as calcium elevation at 10 uM by fura2/AM assay.
For experiment [10], the target named is P2Y purinoceptor 2 (Mus musculus, UniProt P35383). Put plainly: Agonist activity at mouse P2Y2 receptor expressed in human 1321N1 cells assessed as calcium elevation by fura2/AM assay.
P2Y purinoceptor 2 (Mus musculus, UniProt P35383), sequence (P35383 whole entry): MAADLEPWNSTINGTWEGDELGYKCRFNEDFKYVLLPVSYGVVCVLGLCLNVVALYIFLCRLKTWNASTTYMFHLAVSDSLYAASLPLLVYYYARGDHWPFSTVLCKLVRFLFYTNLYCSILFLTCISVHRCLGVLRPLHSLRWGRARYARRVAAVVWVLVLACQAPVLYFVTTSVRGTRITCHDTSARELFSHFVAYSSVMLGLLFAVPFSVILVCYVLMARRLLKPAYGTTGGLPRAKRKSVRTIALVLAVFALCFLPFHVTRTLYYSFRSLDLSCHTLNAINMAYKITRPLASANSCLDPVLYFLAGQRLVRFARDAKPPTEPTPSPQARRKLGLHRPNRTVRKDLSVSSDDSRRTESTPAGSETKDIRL

The record followed here is ChEMBL document CHEMBL1156882, “5-OMe-UDP is a potent and selective P2Y(6)-receptor agonist” (J Med Chem, 2010).

T1 sequence (P41231 whole entry): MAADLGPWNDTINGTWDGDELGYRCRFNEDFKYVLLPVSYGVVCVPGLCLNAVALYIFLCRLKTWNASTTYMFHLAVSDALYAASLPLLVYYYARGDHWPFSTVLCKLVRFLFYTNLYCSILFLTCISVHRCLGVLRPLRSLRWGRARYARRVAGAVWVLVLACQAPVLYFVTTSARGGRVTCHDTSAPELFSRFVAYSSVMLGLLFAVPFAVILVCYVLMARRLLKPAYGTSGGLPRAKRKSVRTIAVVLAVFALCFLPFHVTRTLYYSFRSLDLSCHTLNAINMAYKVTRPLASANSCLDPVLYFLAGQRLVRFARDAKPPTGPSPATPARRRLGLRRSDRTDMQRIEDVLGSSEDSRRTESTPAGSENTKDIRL
T2 sequence (P51582 whole entry): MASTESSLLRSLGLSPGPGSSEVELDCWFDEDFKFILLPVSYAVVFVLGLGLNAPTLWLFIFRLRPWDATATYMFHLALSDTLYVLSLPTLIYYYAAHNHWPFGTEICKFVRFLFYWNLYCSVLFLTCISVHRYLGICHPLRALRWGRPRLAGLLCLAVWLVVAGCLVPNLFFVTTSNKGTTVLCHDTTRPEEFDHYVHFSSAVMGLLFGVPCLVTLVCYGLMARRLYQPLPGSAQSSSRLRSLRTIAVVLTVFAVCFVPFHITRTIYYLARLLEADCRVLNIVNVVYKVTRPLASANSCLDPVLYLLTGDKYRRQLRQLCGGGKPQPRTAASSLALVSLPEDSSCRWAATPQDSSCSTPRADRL

For `O=c1[nH]c(=O)n([C@@H]2O[C@H](COP(=O)(O)OP(=O)(O)OP(=O)(O)O)[C@@H](O)[C@H]2O)cc1F`, the figures for the EC50 on P2Y purinoceptor 2 [1] (read-out: EC50), on P2Y purinoceptor 4 [2] and on P2Y purinoceptor 6 [3] were 6000 nM, 600 nM and “Active”, respectively.
Turning to `O=c1[nH]c(=O)n([C@@H]2O[C@H](COP(=O)(O)OP(=O)(O)OP(=O)(O)O)[C@@H](O)[C@H]2O)cc1Br`, the EC50 came out at 800 nM at P2Y purinoceptor 6 [4] (read-out: EC50), 2060 nM at P2Y purinoceptor 2 [1] (read-out: EC50) and 10000 nM on P2Y purinoceptor 4 [5] (read-out: EC50).
Take `O=c1ccn([C@@H]2O[C@H](COP(=O)(O)OP(=O)(O)OP(=O)(O)OP(=O)(O)OC[C@H]3O[C@@H](n4ccc(=O)[nH]c4=O)[C@H](O)[C@@H]3O)C3OC(Cc4ccccc4)OC32)c(=O)[nH]1` (stereo partly drawn): on P2Y purinoceptor 6 [4] (read-out: EC50), the EC50 was 140 nM.
On the same count and under the same terms, with `O=c1[nH]c(=O)n([C@@H]2O[C@H](COP(=O)(O)OP(=O)(O)O)[C@@H](O)[C@H]2O)cc1I` the figure was 13 nM.
For `COc1cn([C@@H]2O[C@H](COP(=O)(O)OP(=O)(O)O)[C@@H](O)[C@H]2O)c(=O)[nH]c1=O`, the EC50 at P2Y purinoceptor 6 [4] (read-out: EC50) was 80 nM; at P2Y purinoceptor 2 [1] (1321-n1), “Not Active”; at P2Y purinoceptor 4 [5] (read-out: EC50) it was not below 20000 nM.
As to `O=c1[nH]c(=O)n([C@@H]2O[C@H](COP(=O)(O)OP(=O)(O)O)[C@@H](O)[C@H]2O)cc1F`, the EC50 at P2Y purinoceptor 2 [6] turned out to be 2000 nM; on P2Y purinoceptor 4 [2], 3500 nM; at P2Y purinoceptor 6 [7], 10000 nM.
Turning to `O=c1cc(Sc2ccccc2)n([C@@H]2O[C@H](COP(=O)(O)OP(=O)(O)OP(=O)(O)O)[C@@H](O)[C@H]2O)c(=O)[nH]1`, the EC50 result at P2Y purinoceptor 6 [4] (1321-n1), on P2Y purinoceptor 2 [1] (1321-n1) and on P2Y purinoceptor 4 [5] (1321-n1) was “Not Active” each time.
For the molecule `COc1cn([C@@H]2O[C@H](COP(=O)(O)OP(=O)(O)OP(=O)(O)O)[C@@H](O)[C@H]2O)c(=O)[nH]c1=O`, the EC50 is 900 nM on P2Y purinoceptor 6 [4] (read-out: EC50), “Active” at P2Y purinoceptor 4 [8] and 2000 nM at P2Y purinoceptor 2 [1] (read-out: EC50).
As for `COc1cc(=O)[nH]c(=O)n1[C@@H]1O[C@H](COP(=O)(O)OP(=O)(O)OP(=O)(O)O)[C@@H](O)[C@H]1O`, the EC50 entry is “Not Active” on P2Y purinoceptor 6 [4] (1321-n1), 3000 nM at P2Y purinoceptor 2 [1] (read-out: EC50) and “Not Active” at P2Y purinoceptor 4 [5] (1321-n1).
Regarding `O=c1[nH]c(=O)n([C@@H]2O[C@H](COP(=O)(O)OP(=O)(O)S)[C@@H](O)[C@H]2O)cc1Br` (stereo partly drawn), on P2Y purinoceptor 6 [4] (read-out: EC50), the EC50 stood at 47 nM.
The same measure, in the same setting: as for `O=c1ccn([C@]23C[C@H]2[C@H](COP(=O)(O)OP(=O)(O)O)[C@@H](O)[C@H]3O)c(=O)[nH]1`, the figure is 230 nM.
In the case of `CSc1cc(=O)[nH]c(=O)n1[C@@H]1O[C@H](COP(=O)(O)OP(=O)(O)OP(=O)(O)O)[C@@H](O)[C@H]1O`, the EC50 result is “Active” on P2Y purinoceptor 2 [9], “Not Active” at P2Y purinoceptor 6 [4] (1321-n1) and “Not Active” at P2Y purinoceptor 4 [5] (1321-n1).
In the case of `CCc1cn([C@@H]2O[C@H](COP(=O)(O)OP(=O)(O)OP(=O)(O)O)[C@@H](O)[C@H]2O)c(=O)[nH]c1=O`, the EC50 at P2Y purinoceptor 2 [10] is 99000 nM.
On to `Nc1ccn([C@H]2C[C@H](O)[C@@H](COP(=O)(O)OP(=O)(O)OP(=O)(O)OP(=O)(O)OC[C@H]3O[C@@H](n4ccc(=O)[nH]c4=O)[C@H](O)[C@@H]3O)O2)c(=O)n1` [DENUFOSOL], for which the EC50 on P2Y purinoceptor 2 [1] (read-out: EC50) amounted to 220 nM.
On to `O=c1ccn([C@@H]2O[C@H](COP(=O)(O)OP(=O)(O)OP(=O)(O)O)[C@@H](O)[C@H]2O)c(=O)[nH]1` [URIDINE TRIPHOSPHATE], for which the EC50 at P2Y purinoceptor 2 [1] (read-out: EC50) was 100 nM; on P2Y purinoceptor 4 [5] (read-out: EC50) it was 500 nM.
Turning to `O=c1ccn([C@@H]2O[C@H](COP(=O)(O)OP(=O)(O)O)[C@@H](O)[C@H]2O)c(=O)[nH]1` [URIDINE_DIPHOSPHATE], at P2Y purinoceptor 6 [4] (read-out: EC50), the concentration giving a half-maximal response (EC50) worked out at 140 nM.
